# Columns and labels:
# [1] = target: Prasiola crispa far-red light-harvesting Chl-binding protein complex (Pc-frLHC) subunit (Prasiola crispa); experiment: cryo-EM structure; single-particle cryo-EM, C11 symmetry imposed; 6 mg protein/ml in 25 mM MES pH 6.5, 0.015% β-DDM, 0.5 M betaine; 3.13 Å
# [2] = target: T1, Pc-frLHC (Prasiola crispa far-red light-harvesting Chl-binding protein complex) (Prasiola crispa, UniProt C0HLU5); experiment: cryo-EM structure, […] A; biochemical pigment analysis; settings: native pigment, pH 6.5
# T1 construct: native complex purified from thylakoids of thalli harvested in Antarctica; beta-DDM; homo-undecamer, subunit about 29 kDa
# T1 sequence (C0HLU5 45-307, one chain of several): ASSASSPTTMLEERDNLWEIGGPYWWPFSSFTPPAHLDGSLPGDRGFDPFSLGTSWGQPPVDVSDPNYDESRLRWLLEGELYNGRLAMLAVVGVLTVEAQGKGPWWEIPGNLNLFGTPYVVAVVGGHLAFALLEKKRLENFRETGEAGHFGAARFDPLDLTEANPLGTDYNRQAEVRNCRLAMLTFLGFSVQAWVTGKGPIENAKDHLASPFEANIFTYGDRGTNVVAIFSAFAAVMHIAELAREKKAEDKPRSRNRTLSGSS
molecule,measurement,setting,value
Prasiola crispa far-red light-harvesting Chl-binding protein complex (Pc-frLHC) subunit (natural protein),stoichiometry N,[1],11
CC1=C[C@H](O)CC(C)(C)[C@H]1/C=C/C(C)=C/C=C/C(C)=C/C=C/C=C(C)/C=C/C=C(/C=C/C1=C(C)C[C@@H](O)CC1(C)C)CO [loroxanthin],"cryo-EM structure, 3.13 A; biochemical pigment analysis",[2]; L2 site,Pc-frLHC binds only two carotenoids: violaxanthin (vio) and loroxanthin (loro)
CC(/C=C/C=C(C)/C=C/[C@@]12O[C@]1(C)C[C@@H](O)CC2(C)C)=C\C=C\C=C(C)\C=C\C=C(C)\C=C\[C@@]12O[C@]1(C)C[C@@H](O)CC2(C)C [violaxanthin],"cryo-EM structure, 3.13 A; biochemical pigment analysis",[2]; L1 site,Pc-frLHC binds only two carotenoids: violaxanthin (vio) and loroxanthin (loro)
